From patent US20140093498A1, “PHARMACEUTICAL COMBINATIONS COMPRISING DUAL ANGIOPOIETIN-2 / DLL4 BINDERS AND ANTI-VEGF-R AGENTS” (BOEHRINGER INGELHEIM INTERNATIONAL GMBH, priority 2012, published 2014)

Columns and labels:
[1] = Body weight losses and deaths in PDX tumor-bearing mice; set-up: species or system nude mice; conditions: mouse, in vivo
Experimental: Tumor diameters were measured twice weekly with a caliper. The volume of each tumor [in mm^3] was calculated according to the formula “tumor volume=length*diameter^2*0.5.” To monitor side effects of treatment, mice were inspected daily for abnormalities and body weight was determined twice weekly. Animals with tumor sizes exceeding 1.5 cm in diameter or 20% body weight loss were euthanized for ethical reasons.

[2] = tested on: pancreatic cancer (PAXF 546); assay: PAXF 546 patient-derived tumor xenograft growth in nude mice; format: in vivo; conditions: BI-1 13.6 mg/kg i.p. twice weekly, BIBF1120 50 mg/kg p.o. once daily, Bevacizumab 15 mg/kg i.p. twice weekly
From the text: (§1) The goal of the present study was to assess the efficacy of BI-1 in combination with Bevacizumab, BIBF1120 or Sunitinib in models of human non small cell lung cancer (LXFE 211, LXFE 1422), colon cancer (CXF 243), mammary cancer (MAXF 401), ovarian cancer (OVXF 1353), pancreatic cancer (PAXF 546) and renal cancer (RXF 1220) in nude mice. All models were patient-derived tumor xenografts (PDX), which were transplanted from patients to nude mice and passaged subcutaneously. These models retain most of the characteristics of the parental patient tumors including histology.
(§2) BI-1 with the sample ID number D11B20V503 was used for this experiment and diluted with PBS. BIBF1120 with the batch chiffre 133562 was suspended in Natrosol 0.5% (Hydroxyethylcellulose Natrosol 250 HX, VWR). […]
(§3) Tumor fragments were obtained from tumor xenografts in serial passage in nude mice. […] Mice were monitored daily. […]
(§4) The doses of BI-1 and Bevacizumab were calculated to the average body weight of all mice on day 1 (28 g) and administered intraperitoneally twice weekly in a volume of 100 μl per mouse. […]
(§5) Tumor diameters were measured twice weekly with a caliper. The volume of each tumor [in mm^3] was calculated according to the formula “tumor volume=length*diameter^2*0.5.” To monitor side effects of treatment, mice were inspected daily for abnormalities and body weight was determined twice weekly. […]

[3] = tested on: human non small cell lung cancer (LXFE 1422); assay: LXFE 1422 patient-derived tumor xenograft growth in nude mice; format: in vivo; conditions: BI-1 13.6 mg/kg i.p. twice weekly, BIBF1120 50 mg/kg p.o. once daily, Bevacizumab 15 mg/kg i.p. twice weekly
From the text: as §1, §2, §3, §4, §5

[4] = tested on: human non-small cell lung cancer (NCI-H1975); assay: Subcutaneous NCI-H1975 xenograft tumor growth in nude mice; format: in vivo; conditions: day 14, 2.5 cycles; Bevacizumab 25 mg/kg i.p. twice weekly, BIBF 1120 50 mg/kg p.o. daily, BI-1 13.6 mg/kg i.p. twice weekly
From the text: The goal of the present study was to assess the efficacy of BI-1 in combination with Bevacizumab and BIBF 1120 in a model of human non small cell lung cancer (NCI-H1975) in nude mice.
• Model: Subcutaneous xenografts of the human non-small cell lung cancer (NCI-H1975) growing in nude mice
BI-1 with the sample ID number D11B20V503 was used for this experiment and diluted with PBS. BIBF 1120 with the batch chiffre 133562 was suspended in Natrosol 0.5% (Hydroxyethylcellulose Natrosol 250 HX, VWR).
Avastin® (Bevacizumab, 25 mg/ml) was purchased from Roche (Basel, Switzerland), (dissolved in 0.9% saline) was diluted with 0.9% saline.
Mice were 7 week-old female BomTac:NMRI-Foxn1nu purchased from Taconic, Denmark. After arrival, mice were allowed to adjust to ambient conditions for at least 5 days before they were used for the experiments. […]
as §4
Tumor diameters were measured three times a week (Monday, Wednesday and Friday) with a caliper. The volume of each tumor [in mm3] was calculated according to the formula “tumor volume=length*diameter2*π/6.” To monitor side effects of treatment, mice were inspected daily for abnormalities and body weight was determined three times a week (Monday, Wednesday and Friday). […]

[5] = tested on: human non small cell lung cancer (LXFE 211); assay: LXFE 211 patient-derived tumor xenograft growth in nude mice; format: in vivo; conditions: BI-1 13.6 mg/kg i.p. twice weekly, BIBF1120 50 mg/kg p.o. once daily, Bevacizumab 15 mg/kg i.p. twice weekly
From the text: as §1, §2, §3, §4, §5

[6] = tested on: mammary cancer (MAXF 401); assay: MAXF 401 patient-derived tumor xenograft growth in nude mice; format: in vivo; conditions: BI-1 13.6 mg/kg i.p. twice weekly, BIBF1120 50 mg/kg p.o. once daily, Bevacizumab 15 mg/kg i.p. twice weekly
From the text: as §1, §2, §3, §4, §5

renal cancer (RXF 1220) = assay: RXF 1220 patient-derived tumor xenograft growth in nude mice; format: in vivo; conditions: BI-1 13.6 mg/kg i.p. twice weekly, Sunitinib 40 mg/kg once daily, Bevacizumab 15 mg/kg i.p. twice weekly
From the text: as §1, §2, §3, §4, §5

[7] = tested on: ovarian cancer (OVXF 1353); assay: OVXF 1353 patient-derived tumor xenograft growth in nude mice; format: in vivo; conditions: BI-1 13.6 mg/kg i.p. twice weekly, BIBF1120 50 mg/kg p.o. once daily
From the text: as §1, §2, §3, §4, §5

colon cancer (CXF 243) = assay: CXF 243 patient-derived tumor xenograft growth in nude mice; format: in vivo; conditions: BI-1 13.6 mg/kg i.p. twice weekly, BIBF1120 50 mg/kg p.o. once daily, Bevacizumab 15 mg/kg i.p. twice weekly
From the text: as §1, §2, §3, §4, §5

Compound | maximum median body weight loss [1] [%] | TGI [%] [2] [%] | TGI [%] [3] [%] | median TGI [4] [%] | TGI [%] [5] [%] | TGI [%] [6] [%] | TGI [%] (renal cancer (RXF 1220)) | TGI [%] [7] [%] | TGI [%] (colon cancer (CXF 243))
Bevacizumab: VEGF-neutralizing antibody A4.6.1, also called bevacizumab (Avastin®) | 9.1 | 59 | 63 | 82 | 37 | 68 | – | – | –
CCN(CC)CCNC(=O)c1c(C)[nH]c(/C=C2\C(=O)Nc3ccc(F)cc32)c1C [Sunitinib] | – | – | – | – | – | – | 62 | – | –
CCS(=O)(=O)O.COC(=O)c1ccc2c(c1)NC(=O)/C2=C(\Nc1ccc(N(C)C(=O)CN2CCN(C)CC2)cc1)c1ccccc1 [BIBF1120, 3-Z-[1-(4-(N-((4-methyl-piperazin-1-yl)-methylcarbonyl)-N-methyl-amino)-anilino)-1-phenyl-methylen]-6-methoxycarbonyl-2-indolinon-monoethanesulfonate] | 5.9 | 69 | 57 | 75 | 40 | 63 | – | 78 | 65
